Data published in patent publication US20260217701A1, “SELECTIVE BET INHIBITORS AND USES THEREOF” (Tay Therapeutics Limited, priority 2022, published 2026).
Marks after values point to notes of the source that are not given here.

Assay: EAE study: body weight
Type: in vivo, C57BI/6 mice
Protocol: Experimental Method H: EAE in animals treated with a BET inhibitor and vehicle. Animals were assigned to the groups outlined in Table 38.
Compound A may be formulated as illustrated in Experimental Method A (see Table 2E.). A 40 mg/mL stock solution of Compound A in DMSO was prepared and aliquots stored at −20° C. On each day of preparation an e.g., 0.75 mL aliquot of thawed stock was diluted with an equal volume of DMSO. The remaining vehicle components were added to provide the highest dose and then diluted with vehicle to provide lower doses. A 30 mg/mL stock solution of FTY720 in ethanol was prepared and stored at −20° C. Daily, the stock solution was diluted with room temperature water to a final dosing concentration of 0.6 mg/mL. Formulated Compound A, FTY720 and vehicle were each at room temperature for dosing.
Female C57BI/6 mice (9 weeks old) were acclimated for seven days prior to study initiation. On Day-1, animals were assigned to groups in a balanced manner to achieve similar average weights across the different groups. Chronic EAE was induced in female C57BI/6 mice following immunization with an emulsion of MOG35-55/CFA on Day 0, followed by an injection of pertussis toxin two hours after the initial immunization. On Day 1, a second injection of pertussis toxin was administered 24 hours after the initial immunization. Mice were injected subcutaneously at two sites on the back with the MOG35-55/CFA emulsion (Hooke Kit™ MOG35-55/CFA Emulsion PTX). The first injection site was located approximately 1 cm caudal of the neckline (upper back), and the second injection site was approximately 2 cm cranial of the base of the tail (lower back). The injection volume was 0.1 mL for each injection. The pertussis toxin was administered at the described times through intraperitoneal injection at a concentration of 85 ng/dose for both injections.
Body weight was measured three times a week (Monday, Wednesday, and Friday) starting on Day-1. Animals were scored daily for EAE starting on Day 7. In-between scores were assigned when the clinical signs fell between two below defined scores.

[1] = Compound A 1 mg/kg (Group 2), Day 0
[2] = Compound A 1 mg/kg (Group 2), Day 2
[3] = Compound A 1 mg/kg (Group 2), Day 5
[4] = Compound A 1 mg/kg (Group 2), Day 7
[5] = Compound A 1 mg/kg (Group 2), Day 9
[6] = Compound A 1 mg/kg (Group 2), Day 12
[7] = Compound A 1 mg/kg (Group 2), Day 14
[8] = Compound A 1 mg/kg (Group 2), Day 16
[9] = Compound A 1 mg/kg (Group 2), Day 19
[10] = Compound A 1 mg/kg (Group 2), Day 21
[11] = Compound A 1 mg/kg (Group 2), Day 23
[12] = Compound A 1 mg/kg (Group 2), Day 27
[13] = Compound A 1 mg/kg (Group 2), Day 28
[14] = Compound A 1 mg/kg (Group 2), Day −1
[15] = Compound A 3 mg/kg (Group 3), Day 0
[16] = Compound A 3 mg/kg (Group 3), Day 2
[17] = Compound A 3 mg/kg (Group 3), Day 5
[18] = Compound A 3 mg/kg (Group 3), Day 7
[19] = Compound A 3 mg/kg (Group 3), Day 9
[20] = Compound A 3 mg/kg (Group 3), Day 12
[21] = Compound A 3 mg/kg (Group 3), Day 14
[22] = Compound A 3 mg/kg (Group 3), Day 16
[23] = Compound A 3 mg/kg (Group 3), Day 19
[24] = Compound A 3 mg/kg (Group 3), Day 21
[25] = Compound A 3 mg/kg (Group 3), Day 23

Cn1cc(-c2ccccc2)c(-c2cn(C)c(=O)c3[nH]c(-c4cnn(C(F)(F)F)c4)cc23)cc1=O [Compound A, 6-methyl-4-(1-methyl-2-oxo-5-phenyl-1,2-dihydropyridin-4-yl)-2-(1-(trifluoromethyl)-1H-pyrazol-4-yl)-1,6-dihydro-7H-pyrrolo[2,3-c]pyridin-7-one]
Relative end weight (% of the mean Day-1 weight) (1 mg/kg): 100.7%
Relative end weight (% of the mean Day-1 weight) (3 mg/kg): 103%
Relative end weight (% of the mean Day-1 weight) (10 mg/kg): 106%
Mean Body Weight [1]: 20.3 g
Mean Body Weight (% of Day −1) [1]: 100.7 % of Day −1
Mean Body Weight [2]: 19.8 g
Mean Body Weight (% of Day −1) [2]: 98.4 % of Day −1
Mean Body Weight [3]: 20.0 g
Mean Body Weight (% of Day −1) [3]: 99.0 % of Day −1
Mean Body Weight [4]: 20.1 g
Mean Body Weight (% of Day −1) [4]: 99.8 % of Day −1
Mean Body Weight [5]: 21.4 g
Mean Body Weight (% of Day −1) [5]: 105.3 % of Day −1
Mean Body Weight [6]: 20.7 g
Mean Body Weight (% of Day −1) [6]: 102.1 % of Day −1
Mean Body Weight [7]: 19.9 g
Mean Body Weight (% of Day −1) [7]: 98.4 % of Day −1
Mean Body Weight [8]: 19.4 g
Mean Body Weight (% of Day −1) [8]: 95.7 % of Day −1
Mean Body Weight [9]: 19.6 g
Mean Body Weight (% of Day −1) [9]: 96.8 % of Day −1
Mean Body Weight [10]: 20.3 g
Mean Body Weight (% of Day −1) [10]: 99.9 % of Day −1
Mean Body Weight [11]: 20.7 g
Mean Body Weight (% of Day −1) [11]: 102.0 % of Day −1
Mean Body Weight [12]: 20.4 g
Mean Body Weight (% of Day −1) [12]: 100.4 % of Day −1
Mean Body Weight [13]: 20.4 g
Mean Body Weight (% of Day −1) [13]: 100.7 % of Day −1
Mean Body Weight [14]: 20.1 g
Mean Body Weight (% of Day −1) [14]: 100.0 % of Day −1
Mean Body Weight Change (% of Day −1) (Compound A 1 mg/kg, mean end body weight): 100.7* % of Day −1
Mean Body Weight [15]: 20.3 g
Mean Body Weight (% of Day −1) [15]: 100.6 % of Day −1
Mean Body Weight [16]: 19.5 g
Mean Body Weight (% of Day −1) [16]: 96.7 % of Day −1
Mean Body Weight [17]: 19.6 g
Mean Body Weight (% of Day −1) [17]: 97.2 % of Day −1
Mean Body Weight [18]: 20.2 g
Mean Body Weight (% of Day −1) [18]: 100.0 % of Day −1
Mean Body Weight [19]: 20.5 g
Mean Body Weight (% of Day −1) [19]: 101.6 % of Day −1
Mean Body Weight [20]: 20.6 g
Mean Body Weight (% of Day −1) [20]: 102.1 % of Day −1
Mean Body Weight [21]: 20.0 g
Mean Body Weight (% of Day −1) [21]: 99.5 % of Day −1
Mean Body Weight [22]: 19.5 g
Mean Body Weight (% of Day −1) [22]: 96.9 % of Day −1
Mean Body Weight [23]: 19.5 g
Mean Body Weight (% of Day −1) [23]: 97.0 % of Day −1
Mean Body Weight [24]: 20.3 g
Mean Body Weight (% of Day −1) [24]: 101.5 % of Day −1
Mean Body Weight [25]: 20.8 g
Mean Body Weight (% of Day −1) [25]: 103.9 % of Day −1
